Data as given in US12522612B2, “PDE4 inhibitors, pharmaceutical compositions, and therapeutic applications” (BioTheryX, Inc., priority 2019, dated 2026).

Columns and labels:
TNF-α = test: Cell-based TNF-α inhibition assay in LPS-induced PBMCs (Meso Scale); details: PBMC, PBMCs pretreated 1 h, LPS 100 ng/mL 18-24 h, relative to stimulated DMSO control; for inhibition at 0.1 µM: compound concentration 0.1 μM; for inhibition at 1 µM: compound concentration 1 μM
Method: Frozen primary blood mononuclear cells (PBMCs) were quick thawed, washed once with RPMI 1640 media supplemented with 10% fetal bovine serum, 1% penicillin, and 1% streptomycin, and plated in a 96 well plate at 200,000 cells per well. The cells were pretreated with DMSO only as a control or a compound for 1 h, and then induced with LPS (lipopolysaccharide) (100 ng/mL) for 18-24 h. The supernatant was analyzed for TNF-α using the Meso Scale assay. Compound activity was determined as a percentage of the stimulated DMSO control. The results are summarized in Table 1, where A represents a percent inhibition value ≥60%; B represents a percent inhibition value <60% and ≥40%; C represents a percent inhibition value <40% and >20%; and D represents a single percent inhibition value <20%.

PDE4B = molecular target: T1, PDE4B (Homo sapiens, UniProt Q07343); test: Protein degradation assay in A549 cells, western blot, PDE4B; format: cell-based; details: 24 h treatment, read-out: PDE4B degradation relative to DMSO
T1 construct: Whole cell extracts were prepared using an immunoprecipitation (IP) lysis buffer; endogenous in cells; host or cells: A549
T1 sequence (Q07343 whole entry): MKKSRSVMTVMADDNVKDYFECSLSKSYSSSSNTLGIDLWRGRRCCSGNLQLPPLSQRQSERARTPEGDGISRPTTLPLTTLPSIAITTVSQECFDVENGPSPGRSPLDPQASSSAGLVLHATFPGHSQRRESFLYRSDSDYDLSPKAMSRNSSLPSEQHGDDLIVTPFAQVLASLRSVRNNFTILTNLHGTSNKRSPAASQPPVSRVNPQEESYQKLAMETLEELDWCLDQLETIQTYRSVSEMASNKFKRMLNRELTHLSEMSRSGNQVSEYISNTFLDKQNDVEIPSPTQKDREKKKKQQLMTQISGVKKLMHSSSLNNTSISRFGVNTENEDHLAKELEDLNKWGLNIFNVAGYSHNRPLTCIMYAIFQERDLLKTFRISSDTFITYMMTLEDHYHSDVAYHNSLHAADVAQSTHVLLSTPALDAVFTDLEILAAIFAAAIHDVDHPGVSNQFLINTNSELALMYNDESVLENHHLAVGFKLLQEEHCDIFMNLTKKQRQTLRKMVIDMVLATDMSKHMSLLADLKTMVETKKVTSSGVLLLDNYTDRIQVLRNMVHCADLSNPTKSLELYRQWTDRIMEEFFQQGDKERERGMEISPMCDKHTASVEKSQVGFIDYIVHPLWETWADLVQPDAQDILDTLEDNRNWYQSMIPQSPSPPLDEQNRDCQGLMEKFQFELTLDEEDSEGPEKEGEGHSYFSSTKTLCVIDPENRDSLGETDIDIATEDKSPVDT
Method: A549 cells were grown in RPMI 1640 media supplemented with 10% fetal bovine serum, streptomycin, and penicillin. The cells were plated in 6-well plates in the growth media. The next day, fresh growth media were replaced on the cells. The cells were then treated with a compound for 24 h at predetermined concentrations. Whole cell extracts were prepared using an immunoprecipitation (IP) lysis buffer. Briefly, the cells were washed once in PBS, and the cell pellets were resuspended in the IP lysis buffer and incubated for 15 min on ice. Cells debris was removed by centrifugation and the cleared whole cell lysates were transferred to new tubes for further analysis.
For a western blot analysis, the whole cell protein extracts were separated on 4-12% SDS-polyacrylamide gels, transferred to nitrocellulose, and probed with primary antibodies. Membranes were subsequently washed and probed with IRDYE® secondary antibodies. The signals were detected using an ODYSSEY® Imaging System. The antibodies used in the assay included anti-PDE4B antibody; anti-PDE4D antibodies (top, bottom, and short isoform); β-actin mouse monoclonal antibody; IRDYE® 680RD goat anti-rabbit antibody; and IRDYE® 800CW goat anti-mouse antibody. Compounds B2 to B4, B18, B49 to B52, B76, B77, B79, B81 to B83, B88, B89, and B91 were determined to be able to degradate PDE4B as high as about 50% relative to DMSO.

Row | SMILES | inhibition at 0.1 µM (TNF-α) | inhibition at 1 µM (TNF-α) | Dmax (PDE4B)
1 | O=C1CCC(N2Cc3c(cc(F)cc3C3CCN(CCCCCCCOc4cc(C(=O)Nc5c(Cl)cncc5Cl)ccc4OC(F)F)CC3)C2=O)C(=O)N1 (stereo not drawn) [Compound B4, N-(3,5-dichloropyridin-4-yl)-4-(difluoromethoxy)-3-((7-(4-(2-(2,6-dioxopiperidin-3-yl)-6-fluoro-1-oxoisoindolin-4-yl)piperidin-1-yl)heptyl)oxy)benzamide] | ≥ 60% | ≥ 60% | ≤ 50%
2 | O=C1CCC(N2Cc3c(C#CC4CCN(C(=O)CCCCOc5cc(C(=O)Nc6c(Cl)cncc6Cl)ccc5OC(F)F)CC4)cccc3C2=O)C(=O)N1 (stereo not drawn) [Compound B18, N-(3,5-Dichloropyridin-4-yl)-4-(difluoromethoxy)-3-((5-(4-((2-(2,6-dioxopiperidin-3-yl)-1-oxoisoindolin-4-yl)ethynyl)piperidin-1-yl)-5-oxopentyl)oxy)benzamide] | ≥ 60% | ≥ 60% | ≤ 50%
3 | COc1ccc(N2C(=O)c3ccccc3C2=O)cc1OCCCCCCCN1CCC(c2cc(F)cc3c2CN(C2CCC(=O)NC2=O)C3=O)CC1 (stereo not drawn) [Compound B51, 2-(3-((7-(4-(2-(2,6-Dioxopiperidin-3-yl)-6-fluoro-1-oxoisoindolin-4-yl)piperidin-1-yl)heptyl)oxy)-4-methoxyphenyl)isoindoline-1,3-dione] | – | 20 to 40% | ≤ 50%
4 | CCOc1cc([C@@H](CS(C)(=O)=O)N2C(=O)c3cc(CCCCCCCN4CCC(c5cc(F)cc6c5CN(C5CCC(=O)NC5=O)C6=O)CC4)cc(NC(C)=O)c3C2=O)ccc1OC (stereo partly drawn) [Compound B2, N-(6-(7-(4-(2-(2,6-dioxopiperidin-3-yl)-6-fluoro-1-oxoisoindolin-4-yl)piperidin-1-yl)heptyl)-2-((S)-1-(3-ethoxy-4-methoxyphenyl)-2-(methylsulfonyl)ethyl)-1,3-dioxoisoindolin-4-yl)acetamide] | – | ≥ 60% | ≤ 50%
5 | O=C1CCC(N2Cc3c(cc(F)cc3C3CCN(CCCCCCCN(C(=O)c4ccc(OC(F)F)c(OCC5CC5)c4)c4c(Cl)cncc4Cl)CC3)C2=O)C(=O)N1 (stereo not drawn) [Compound B3, 3-(Cyclopropylmethoxy)-N-(3,5-dichloropyridin-4-yl)-4-(difluoromethoxy)-N-(7-(4-(2-(2,6-dioxopiperidin-3-yl)-6-fluoro-1-oxoisoindolin-4-yl)piperidin-1-yl)heptyl)benzamide] | < 20% | < 20% | ≤ 50%
6 | CCOc1cc([C@@H](CS(C)(=O)=O)N2C(=O)c3cc(CCCCCCCC4CCN(c5cccc6c5C(=O)N(C5CCC(=O)NC5=O)C6=O)CC4)cc(NC(C)=O)c3C2=O)ccc1OC (stereo partly drawn) [Compound B88, N-(6-(7-(1-(2-(2,6-Dioxopiperidin-3-yl)-1,3-dioxoisoindolin-4-yl)piperidin-4-yl)heptyl)-2-((S)-1-(3-ethoxy-4-methoxyphenyl)-2-(methylsulfonyl)ethyl)-1,3-dioxoisoindolin-4-yl)acetamide] | – | – | ≤ 50%
7 | CCOc1cc([C@@H](CS(C)(=O)=O)N2C(=O)c3cccc(NC(=O)CCOCCOCCNc4cccc5c4C(=O)N(C4CCC(=O)NC4=O)C5=O)c3C2=O)ccc1OC (stereo partly drawn) [Compound B89, 3-(2-(2-((2-(2,6-Dioxopiperidin-3-yl)-1,3-dioxoisoindolin-4-yl)amino)ethoxy)ethoxy)-N-(2-((S)-1-(3-ethoxy-4-methoxyphenyl)-2-(methylsulfonyl)ethyl)-1,3-dioxoisoindolin-4-yl)propanamide] | – | – | ≤ 50%
8 | CCOc1cc([C@@H](CS(C)(=O)=O)N2C(=O)c3cccc(NC(=O)CCCCCCCCN4CCC(c5cc(F)cc6c5CN(C5CCC(=O)NC5=O)C6=O)CC4)c3C2=O)ccc1OC (stereo partly drawn) [Compound B77, 9-(4-(2-(2,6-Dioxopiperidin-3-yl)-6-fluoro-1-oxoisoindolin-4-yl)piperidin-1-yl)-N-(2-((S)-1-(3-ethoxy-4-methoxyphenyl)-2-(methylsulfonyl)ethyl)-1,3-dioxoisoindolin-4-yl)nonanamide] | 40 to 60% | ≥ 60% | ≤ 50%
9 | Cc1ncsc1-c1ccc(CNC(=O)[C@@H]2C[C@@H](O)CN2C(=O)[C@@H](NC(=O)CCCCCCCCCCOc2cc(C(=O)Nc3c(Cl)cncc3Cl)ccc2OC(F)F)C(C)(C)C)cc1 [Compound B76, (2S,4R)-1-((S)-2-(11-(5-((3,5-Dichloropyridin-4-yl)carbamoyl)-2-(difluoromethoxy)phenoxy)undecanamido)-3,3-dimethylbutanoyl)-4-hydroxy-N-(4-(4-methylthiazol-5-yl)benzyl)pyrrolidine-2-carboxamide] | ≥ 60% | ≥ 60% | ≤ 50%
10 | COc1ccc(N2Cc3ccccc3C2=O)cc1OCCCCCCCN1CCC(c2cc(F)cc3c2CN(C2CCC(=O)NC2=O)C3=O)CC1 (stereo not drawn) [Compound B49, 3-(6-Fluoro-4-(1-(7-(2-methoxy-5-(1-oxoisoindolin-2-yl)phenoxy)heptyl)piperidin-4-yl)-1-oxoisoindolin-2-yl)piperidine-2,6-dione] | – | < 20% | ≤ 50%
11 | O=C1CCC(N2Cc3c(cc(F)cc3C3CCN(CCCCCCCOc4ccc(N5Cc6sccc6C5=O)cc4OC4CCCC4)CC3)C2=O)C(=O)N1 (stereo not drawn) [Compound B91, 3-(4-(1-(7-(2-(Cyclopentyloxy)-4-(4-oxo-4,6-dihydro-5H-thieno[2,3-c]pyrrol-5-yl)phenoxy)heptyl)piperidin-4-yl)-6-fluoro-1-oxoisoindolin-2-yl)piperidine-2,6-dione] | – | – | ≤ 50%
12 | CCOc1cc([C@@H](CS(C)(=O)=O)N2C(=O)c3cc(CCCCCCCCCCCCN4CCC(c5cc(F)cc6c5CN(C5CCC(=O)NC5=O)C6=O)CC4)cc(NC(C)=O)c3C2=O)ccc1OC (stereo partly drawn) [Compound B79, N-(6-(12-(4-(2-(2,6-Dioxopiperidin-3-yl)-6-fluoro-1-oxoisoindolin-4-yl)piperidin-1-yl)dodecyl)-2-((S)-1-(3-ethoxy-4-methoxyphenyl)-2-(methylsulfonyl)ethyl)-1,3-dioxoisoindolin-4-yl)acetamide] | ≥ 60% | ≥ 60% | ≤ 50%
13 | O=C1CCC(N2Cc3c(cc(F)cc3C3CCN(CCCCCCCOc4ccc(N5Cc6ccccc6C5=O)cc4OC4CCCC4)CC3)C2=O)C(=O)N1 (stereo not drawn) [Compound B50, 3-(4-(1-(7-(2-(Cyclopentyloxy)-4-(1-oxoisoindolin-2-yl)phenoxy)heptyl)piperidin-4-yl)-6-fluoro-1-oxoisoindolin-2-yl)piperidine-2,6-dione] | – | < 20% | ≤ 50%
14 | O=C1CCC(N2Cc3c(NCCCOCCOCCOCCOc4ccc(C(=O)Nc5c(Cl)cncc5Cl)cc4OCC4CC4)cccc3C2=O)C(=O)N1 (stereo not drawn) [Compound B81, 3-(Cyclopropylmethoxy)-N-(3,5-dichloropyridin-4-yl)-4-(2-(2-(2-(3-((2-(2,6-dioxopiperidin-3-yl)-1-oxoisoindolin-4-yl)amino)propoxy)ethoxy)ethoxy)ethoxy)benzamide] | – | – | ≤ 50%
15 | COc1ccc([C@@H](CS(C)(=O)=O)N2C(=O)c3csc(NC(C)=O)c3C2=O)cc1OC1CC1 [Compound A4, (S)—N-(5-(1-(3-cyclopropoxy-4-methoxyphenyl)-2-(methylsulfonyl)ethyl)-4,6-dioxo-5,6-dihydro-4H-thieno[3,4-c]pyrrol-1-yl)acetamide] | 40 to 60% | ≥ 60% | –
16 | CCOc1cc([C@@H](CS(C)(=O)=O)N2Cc3c(NC(=O)COC)csc3C2=O)ccc1OC [Compound A2, (S)—N-(5-(1-(3-ethoxy-4-methoxyphenyl)-2-(methylsulfonyl)ethyl)-6-oxo-5,6-dihydro-4H-thieno[2,3-c]pyrrol-3-yl)-2-methoxyacetamide] | 20 to 40% | 20 to 40% | –
17 | CCOc1cc([C@@H](CS(C)(=O)=O)N2C(=O)c3cccc(NC(=O)CCCCCCCCC(=O)N[C@H](C(=O)N4C[C@H](O)C[C@H]4C(=O)NCc4ccc(-c5scnc5C)cc4)C(C)(C)C)c3C2=O)ccc1OC [Compound B63, N^1-(2-((S)-1-(3-Ethoxy-4-methoxyphenyl)-2-(methylsulfonyl)ethyl)-1,3-dioxoisoindolin-4-yl)-N^10—((S)-1-((2S,4R)-4-hydroxy-2-((4-(4-methylthiazol-5-yl)benzyl)carbamoyl)pyrrolidin-1-yl)-3,3-dimethyl-1-oxobutan-2-yl)decanediamide] | ≥ 60% | ≥ 60% | –
